Source: US20020081596A1, “Compositions and methods for the identification, assessment, prevention, and therapy of human cancers” (priority 2000, published 2002)

Experiments:
MCF-7/AdrRes = settings: breast, TAXOL resistant cell line; cited from earlier work
SK-MEL-5 = settings: SK-MEL-5, melanoma, TAXOL sensitive cell line; cited from earlier work
EKVX = settings: non-small cell lung carcinoma, TAXOL resistant cell line; cited from earlier work
OVCAR-3 = settings: OVCAR-3, ovarian, TAXOL sensitive cell line; cited from earlier work
OVCAR-4 = settings: OVCAR-4, ovarian, TAXOL resistant cell line; cited from earlier work
HT-29 = settings: HT-29, colon, TAXOL sensitive cell line; cited from earlier work
MALME-3M = settings: melanoma, TAXOL resistant cell line; cited from earlier work
[1] = tested on: TAXOL resistant cancer cell lines; test: Growth inhibition (GI50) by TAXOL, mean of nine resistant cell lines; format: cell-based, human; settings: mean of the nine TAXOL resistant cell lines of Table B
Experimental: (§1) One group of nine cell lines was determined to be sensitive to TAXOL (Table C), the other group of nine cell lines was determined to be resistant to TAXOL (Table B). Sensitivity to TAXOL was based of known GI50 values for these cells, which for this study was defined as the concentration of TAXOL required to inhibit growth of the cell line by 50%. More precisely, the quantity used in the calculation is the potency measure −log{GI50}. Pooled RNA from TAXOL sensitive cancer cell lines was used as tester against driver RNA pooled from TAXOL resistant cancer cell lines. Pooled RNA from TAXOL resistant cancer cell lines was used as tester against driver RNA pooled from TAXOL sensitive cancer cell lines.

NCl-H522 = settings: NCl-H522, non-small cell lung carcinoma, TAXOL sensitive cell line; cited from earlier work
HCT-15 = settings: HCT-15, colon, TAXOL resistant cell line; cited from earlier work
SN12C = settings: renal, TAXOL sensitive cell line; cited from earlier work
T-47D = settings: breast, TAXOL resistant cell line; cited from earlier work
MDA-MB-435 = settings: MDA-MB-435, breast, TAXOL sensitive cell line; cited from earlier work
SK-MEL-28 = settings: SK-MEL-28, melanoma, TAXOL resistant cell line; cited from earlier work
ACHN = settings: renal, TAXOL resistant cell line; cited from earlier work
NCl-H460 = settings: NCl-H460, non-small cell lung carcinoma, TAXOL sensitive cell line; cited from earlier work
[2] = tested on: TAXOL sensitive cancer cell lines; test: Growth inhibition (GI50) by TAXOL, mean of nine sensitive cell lines; format: cell-based, human; settings: mean of the nine TAXOL sensitive cell lines of Table C
Experimental: as §1

SK-MEL-2 = settings: SK-MEL-2, melanoma, TAXOL sensitive cell line; cited from earlier work
HOP-92 = settings: HOP-92, non-small cell lung carcinoma, TAXOL resistant cell line; cited from earlier work
MCF-7 = settings: MCF-7, breast, TAXOL sensitive cell line; cited from earlier work
tumor = settings: animal models; cited from earlier work

## CC(=O)O[C@H]1C(=O)[C@@]2(C)[C@H]([C@H](OC(=O)c3ccccc3)[C@]3(O)C[C@H](OC(=O)[C@H](O)[C@@H](NC(=O)c4ccccc4)c4ccccc4)C(C)=C1C3(C)C)[C@]1(OC(C)=O)CO[C@@H]1C[C@@H]2O [TAXOL]
MCF-7/AdrRes
  Log Gl 50 for TAXOL: −5.5
SK-MEL-5
  Log GI 50 for TAXOL: −8.4
EKVX
  Log Gl 50 for TAXOL: −6.6
OVCAR-3
  Log GI 50 for TAXOL: −8.5
OVCAR-4
  Log Gl 50 for TAXOL: −6.3
HT-29
  Log GI 50 for TAXOL: −8.6
MALME-3M
  Log Gl 50 for TAXOL: −6.8
[1]
  Log Gl 50 for TAXOL (Mean): −6.5
NCl-H522
  Log GI 50 for TAXOL: −8.5
HCT-15
  Log Gl 50 for TAXOL: −6.7
SN12C
  Log GI 50 for TAXOL: −8.5
T-47D
  Log Gl 50 for TAXOL: −6.9
MDA-MB-435
  Log GI 50 for TAXOL: −8.6
SK-MEL-28
  Log Gl 50 for TAXOL: −7.1
ACHN
  Log Gl 50 for TAXOL: −5.8
NCl-H460
  Log GI 50 for TAXOL: −8.5
[2]
  Log GI 50 for TAXOL (Mean): −8.5
SK-MEL-2
  Log GI 50 for TAXOL: −8.3
HOP-92
  Log Gl 50 for TAXOL: −7.2
MCF-7
  Log GI 50 for TAXOL: −8.5

## CC(=O)O[C@@]12CO[C@@H]1C[C@H](O)[C@@]1(C)C(=O)[C@H](O)C3=C(C)[C@@H](OC(=O)[C@H](O)[C@@H](NC(=O)OC(C)(C)C)c4ccccc4)C[C@@](O)([C@@H](OC(=O)c4ccccc4)[C@H]21)C3(C)C [Taxotere, docetaxel]
tumor
  anti-tumor activity: good anti-tumor activity
